Data published in the kinase profiling compilation of Christmann-Franck et al. (2016).

Columns and labels:
Assay in all cases: KINOMEscan competition binding
Conditions in all cases: compound 10.0 µM
[1] = test system: ABL1 (human), P00519 [M351T]
[2] = test system: ABL1 (human), P00519 [Q252H]
[3] = test system: ABL1 (human), P00519 [T315I]
[4] = test system: EIF2AK4 KD2 (human), Q9P2K8 [S808G]
[5] = test system: FLT3 (human), P36888 [ITD]
[6] = test system: FLT3 (human), P36888 [K663Q]
[7] = test system: FLT3 (human), P36888 [N841I]
[8] = test system: KIT (human), P10721 [D816V]
[9] = test system: KIT (human), P10721 [V559D/T670I]
[10] = test system: KIT (human), P10721 [V559D]
[11] = test system: PIK3CA (human), P42336 [C420R]
[12] = test system: PIK3CA (human), P42336 [E545A]
[13] = test system: PIK3CA (human), P42336 [E545K]
[14] = test system: PIK3CA (human), P42336 [H1047Y]
[15] = test system: PIK3CA (human), P42336 [I800L]
[16] = test system: PIK3CA (human), P42336 [Q546K]
[17] = test system: ABL1 (human), P00519 [E255K]
[18] = test system: EGFR (human), P00533 [746-750 del]
[19] = test system: EGFR (human), P00533 [G719S]
[20] = test system: EGFR (human), P00533 [L861Q]
[21] = test system: EGFR (human), P00533 [P753S; 747-752 del]

Chain of KIT (human), P10721 [V559D] (P10721 whole entry V559D, looked up): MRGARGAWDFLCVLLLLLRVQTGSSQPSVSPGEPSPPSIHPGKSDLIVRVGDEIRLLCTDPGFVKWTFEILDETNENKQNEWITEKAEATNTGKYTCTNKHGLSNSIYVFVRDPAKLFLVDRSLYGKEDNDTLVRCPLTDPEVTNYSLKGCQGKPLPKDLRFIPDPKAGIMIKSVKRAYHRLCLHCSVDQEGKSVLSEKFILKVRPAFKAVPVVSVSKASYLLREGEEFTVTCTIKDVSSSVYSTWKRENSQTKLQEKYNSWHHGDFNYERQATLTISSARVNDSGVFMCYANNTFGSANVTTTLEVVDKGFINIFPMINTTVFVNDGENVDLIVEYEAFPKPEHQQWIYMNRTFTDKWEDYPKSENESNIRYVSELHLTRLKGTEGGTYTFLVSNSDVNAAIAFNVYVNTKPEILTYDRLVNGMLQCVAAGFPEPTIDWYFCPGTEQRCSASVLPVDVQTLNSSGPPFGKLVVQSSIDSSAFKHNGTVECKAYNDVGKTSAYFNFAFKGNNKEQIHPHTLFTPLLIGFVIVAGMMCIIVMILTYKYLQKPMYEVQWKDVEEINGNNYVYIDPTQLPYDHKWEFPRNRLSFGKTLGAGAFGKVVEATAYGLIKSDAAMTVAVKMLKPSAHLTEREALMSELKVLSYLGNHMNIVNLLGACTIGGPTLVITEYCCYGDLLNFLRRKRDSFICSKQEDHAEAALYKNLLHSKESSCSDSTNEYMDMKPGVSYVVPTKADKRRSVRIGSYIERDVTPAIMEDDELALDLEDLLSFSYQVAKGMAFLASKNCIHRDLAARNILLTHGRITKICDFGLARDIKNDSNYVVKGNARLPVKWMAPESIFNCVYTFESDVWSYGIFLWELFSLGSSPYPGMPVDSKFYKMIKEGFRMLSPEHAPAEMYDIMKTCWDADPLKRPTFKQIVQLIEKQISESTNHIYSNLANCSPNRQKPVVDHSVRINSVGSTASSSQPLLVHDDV
Chain of KIT (human), P10721 [D816V] (P10721 whole entry D816V, looked up): as the sequence (P10721 whole entry V559D, looked up) above, with D559V, D816V counted along it
Chain of PIK3CA (human), P42336 [C420R] (P42336 whole entry C420R, looked up): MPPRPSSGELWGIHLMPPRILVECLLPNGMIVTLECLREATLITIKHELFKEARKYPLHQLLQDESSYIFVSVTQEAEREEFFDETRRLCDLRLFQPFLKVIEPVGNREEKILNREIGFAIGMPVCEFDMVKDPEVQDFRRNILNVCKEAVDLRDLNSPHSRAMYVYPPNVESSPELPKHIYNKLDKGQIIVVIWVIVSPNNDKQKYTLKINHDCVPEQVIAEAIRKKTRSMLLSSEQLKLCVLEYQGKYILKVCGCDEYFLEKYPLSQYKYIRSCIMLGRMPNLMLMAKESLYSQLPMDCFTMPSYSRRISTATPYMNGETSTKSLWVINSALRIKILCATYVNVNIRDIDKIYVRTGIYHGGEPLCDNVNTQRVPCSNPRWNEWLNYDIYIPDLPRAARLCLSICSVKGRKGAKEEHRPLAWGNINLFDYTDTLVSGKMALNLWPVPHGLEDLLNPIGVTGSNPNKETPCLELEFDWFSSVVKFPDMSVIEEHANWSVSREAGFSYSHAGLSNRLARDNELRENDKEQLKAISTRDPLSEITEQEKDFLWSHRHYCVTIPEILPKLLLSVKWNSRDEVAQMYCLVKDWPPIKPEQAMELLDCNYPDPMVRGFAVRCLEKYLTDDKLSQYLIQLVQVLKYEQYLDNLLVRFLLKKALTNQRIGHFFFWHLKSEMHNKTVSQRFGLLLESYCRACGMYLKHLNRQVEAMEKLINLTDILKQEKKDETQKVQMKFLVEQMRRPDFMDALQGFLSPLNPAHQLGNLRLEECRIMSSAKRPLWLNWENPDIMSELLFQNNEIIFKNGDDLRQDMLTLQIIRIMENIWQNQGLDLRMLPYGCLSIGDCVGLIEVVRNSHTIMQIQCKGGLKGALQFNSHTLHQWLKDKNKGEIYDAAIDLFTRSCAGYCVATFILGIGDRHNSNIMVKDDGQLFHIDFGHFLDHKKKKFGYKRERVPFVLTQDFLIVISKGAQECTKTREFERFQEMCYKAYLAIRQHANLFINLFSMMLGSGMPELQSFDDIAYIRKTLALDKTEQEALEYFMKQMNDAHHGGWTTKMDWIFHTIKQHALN
Chain of PIK3CA (human), P42336 [E545A] (P42336 whole entry E545A, looked up): as the sequence (P42336 whole entry C420R, looked up) above, with R420C, E545A counted along it
Chain of KIT (human), P10721 [V559D/T670I] (P10721 whole entry V559D/T670I, looked up): as the sequence (P10721 whole entry V559D, looked up) above, with T670I counted along it
Chain of PIK3CA (human), P42336 [Q546K] (P42336 whole entry Q546K, looked up): as the sequence (P42336 whole entry C420R, looked up) above, with R420C, Q546K counted along it
Chain of PIK3CA (human), P42336 [H1047Y] (P42336 whole entry H1047Y, looked up): as the sequence (P42336 whole entry C420R, looked up) above, with R420C, H1047Y counted along it
Chain of PIK3CA (human), P42336 [E545K] (P42336 whole entry E545K, looked up): as the sequence (P42336 whole entry C420R, looked up) above, with R420C, E545K counted along it
Chain of EIF2AK4 KD2 (human), Q9P2K8 [S808G] (Q9P2K8 whole entry S808G, looked up): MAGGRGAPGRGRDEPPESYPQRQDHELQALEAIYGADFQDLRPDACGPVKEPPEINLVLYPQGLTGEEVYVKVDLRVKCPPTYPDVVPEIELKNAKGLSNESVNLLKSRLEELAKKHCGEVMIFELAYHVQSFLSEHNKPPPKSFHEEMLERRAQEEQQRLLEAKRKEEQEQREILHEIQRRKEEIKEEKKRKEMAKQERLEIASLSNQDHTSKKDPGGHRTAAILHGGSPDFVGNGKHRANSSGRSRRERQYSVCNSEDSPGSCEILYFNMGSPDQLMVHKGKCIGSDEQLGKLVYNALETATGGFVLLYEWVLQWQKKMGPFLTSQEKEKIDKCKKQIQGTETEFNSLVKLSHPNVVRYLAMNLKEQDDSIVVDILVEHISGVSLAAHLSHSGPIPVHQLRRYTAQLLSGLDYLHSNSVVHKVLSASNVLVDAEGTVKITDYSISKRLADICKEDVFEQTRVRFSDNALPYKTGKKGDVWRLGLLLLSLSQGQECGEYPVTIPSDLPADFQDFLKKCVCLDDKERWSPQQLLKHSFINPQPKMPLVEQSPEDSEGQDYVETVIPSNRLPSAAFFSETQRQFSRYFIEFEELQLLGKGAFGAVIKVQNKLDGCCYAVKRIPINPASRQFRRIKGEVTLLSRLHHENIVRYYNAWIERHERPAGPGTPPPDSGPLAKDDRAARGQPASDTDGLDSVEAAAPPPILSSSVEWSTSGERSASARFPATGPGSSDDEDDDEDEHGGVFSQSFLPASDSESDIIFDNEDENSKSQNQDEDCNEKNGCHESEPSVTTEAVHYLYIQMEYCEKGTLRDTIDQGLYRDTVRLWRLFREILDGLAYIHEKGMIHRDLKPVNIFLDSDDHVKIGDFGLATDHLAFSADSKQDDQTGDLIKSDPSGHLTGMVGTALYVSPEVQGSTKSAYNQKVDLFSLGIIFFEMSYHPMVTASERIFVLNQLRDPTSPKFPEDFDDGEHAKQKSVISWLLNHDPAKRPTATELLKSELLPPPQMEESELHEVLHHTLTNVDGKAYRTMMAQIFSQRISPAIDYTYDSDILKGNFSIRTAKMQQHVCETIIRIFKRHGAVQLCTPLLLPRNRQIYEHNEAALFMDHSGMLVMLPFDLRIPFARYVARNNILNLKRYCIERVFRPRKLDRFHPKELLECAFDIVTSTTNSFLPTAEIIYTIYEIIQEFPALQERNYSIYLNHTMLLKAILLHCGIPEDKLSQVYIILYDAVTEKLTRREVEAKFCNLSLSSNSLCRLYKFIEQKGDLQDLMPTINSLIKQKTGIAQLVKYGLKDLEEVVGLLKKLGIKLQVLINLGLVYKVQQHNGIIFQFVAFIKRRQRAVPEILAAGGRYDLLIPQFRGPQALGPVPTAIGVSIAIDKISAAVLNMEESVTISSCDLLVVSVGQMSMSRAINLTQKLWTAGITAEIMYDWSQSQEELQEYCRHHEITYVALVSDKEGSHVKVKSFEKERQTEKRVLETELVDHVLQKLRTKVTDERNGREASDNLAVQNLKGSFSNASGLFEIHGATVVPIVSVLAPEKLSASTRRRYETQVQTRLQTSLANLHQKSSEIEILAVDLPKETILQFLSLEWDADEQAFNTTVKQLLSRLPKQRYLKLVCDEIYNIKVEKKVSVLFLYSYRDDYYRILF
Chain of PIK3CA (human), P42336 [I800L] (P42336 whole entry I800L, looked up): as the sequence (P42336 whole entry C420R, looked up) above, with R420C, I800L counted along it

| SMILES | kinase still bound, per cent of control [1] [%] | kinase still bound, per cent of control [2] [%] | kinase still bound, per cent of control [3] [%] | kinase still bound, per cent of control [4] [%] | kinase still bound, per cent of control [5] [%] | kinase still bound, per cent of control [6] [%] | kinase still bound, per cent of control [7] [%] | kinase still bound, per cent of control [8] [%] | kinase still bound, per cent of control [9] [%] | kinase still bound, per cent of control [10] [%] | kinase still bound, per cent of control [11] [%] | kinase still bound, per cent of control [12] [%] | kinase still bound, per cent of control [13] [%] | kinase still bound, per cent of control [14] [%] | kinase still bound, per cent of control [16] [%] | kinase still bound, per cent of control [17] [%] | kinase still bound, per cent of control [18] [%] | kinase still bound, per cent of control [19] [%] | kinase still bound, per cent of control [20] [%] | kinase still bound, per cent of control [21] [%] | further results |
| --- | --- | --- | --- | --- | --- | --- | --- | --- | --- | --- | --- | --- | --- | --- | --- | --- | --- | --- | --- | --- | --- |
| CCN(CCO)CCCOc1ccc2c(Nc3cc(CC(=O)Nc4cccc(F)c4)[nH]n3)ncnc2c1 | 39 | 32 | 0.6 | 62 | 2.5 | 1 | 0.15 | 23 | 0 | 0 | 72 | 31 | 100 | 30 | 15 | – | – | – | – | – | kinase still bound, per cent of control [15]: 100% |
| CCN(CC)CCCCNc1ncc2c(n1)N(C)C(=O)N(c1c(Cl)c(OC)cc(OC)c1Cl)C2 | 100 | 100 | 100 | 9.5 | 100 | 100 | 100 | 100 | 100 | 6.1 | 100 | 100 | 100 | 100 | 100 | 100 | 100 | 100 | 100 | 100 | – |
| CS(=O)(=O)N1CCN(Cc2cc3nc(-c4cccc5[nH]ncc45)nc(N4CCOCC4)c3s2)CC1 | 100 | 100 | 100 | 100 | 100 | 100 | 100 | 100 | 100 | 100 | – | 0.35 | 0.3 | 14 | 0.35 | 100 | 100 | 100 | 100 | 100 | – |
| COc1cc(C)c(Sc2cnc(NC(=O)c3ccc(CNC(C)C(C)C)cc3)s2)cc1C(=O)N1CCN(C(C)=O)CC1 (configuration not stated) | 100 | 100 | 19 | 100 | 100 | 100 | 16 | 100 | 100 | 100 | – | – | 100 | – | – | 100 | 100 | 100 | 100 | 100 | – |
| Cc1cn(-c2cc(C(=O)Nc3ccc(C)c(NC(=O)c4ccno4)c3)cc(C(F)(F)F)c2)cn1 | 11 | 13 | 100 | 100 | 100 | 100 | 100 | 27 | 100 | 0.15 | 100 | 100 | 100 | 100 | 100 | 18 | 100 | 100 | 100 | 100 | – |
| CCOc1cc(N2CCC(O)CC2)ccc1Nc1ncc2c(n1)N(C)c1ccccc1C(=O)N2C | 100 | 100 | 100 | 100 | 100 | 100 | 100 | 100 | 100 | 100 | 100 | 100 | 100 | 100 | 100 | 100 | 100 | 100 | 100 | 100 | – |
| CNC(=O)c1ccc(Nc2cc(Nc3ccccc3S(=O)(=O)C(C)C)c3cc[nH]c3n2)nc1 | 7.9 | 11 | 0 | 100 | 0.25 | 2.6 | 0.35 | 4.5 | 22 | 18 | – | – | 4.7 | – | – | 20 | 100 | 100 | 100 | 100 | – |
| COc1cc(N2CCN(C)CC2)ccc1Nc1ncc2c(n1)N(C)c1ccccc1C(=O)N2C | 100 | 100 | 100 | 100 | 100 | 100 | 100 | 100 | 100 | 100 | 100 | 100 | 100 | 100 | 100 | 100 | 100 | 100 | 100 | 100 | – |
